Molecules are shown by their SMILES. Starred links: 1 amine or outer side, 2 acyl side, 3 side chain; linkers in the order of their positions; H or OH if unused. Positions of bridges follow the written chain, without caps; N, C: chain ends. Residues, ends and D or L forms follow the SMILES beside them. *: point of attachment. C20 diacid = O=C(O)CCCCCCCCCCCCCCCCCCC(=O)*; C18 diacid = O=C(O)CCCCCCCCCCCCCCCCC(=O)*; γGlu = O=C(O)[C@H](CCC(=O)[*:2])N[*:1]

The test system of one series is ad libitum fed rat. Description: Assay (I) efficacy testing on appetite (food intake) using an ad libitum fed rat model. Format: in vivo, Sprague Dawley (SD) rats. The gist of the method:
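Ad libitum fed Sprague Dawley rats, 200-250 g, singly housed on reversed light cycle, got one ip, po or sc dose of 0.01-3 mg/kg just before lights off; groups of 5-8 with vehicle control. Food intake recorded hourly for 7 h, then at 24 h and sometimes 48 h; Grubbs outliers excluded.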

Series [1] is described as follows: Assay (III) ThT fibrillation assay for physical stability. Format: physicochemical. The following applies: for ThT pH 4.0 lag time: pH 4.0, ThT fibrillation assay. The gist of the method: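 Freshly prepared, pH-adjusted formulations with 1 μM ThT incubated at 37 °C under 960 rpm orbital shaking (1 mm), fluorescence (ex 444, em 485 nm) read every 20 min. […] Peptide content before and after measured by reverse-phase HPLC against pramlintide standard.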

Turning to `CC[C@H](C)[C@H](NC(=O)[C@@H]1CCCN1C(=O)CNC(=O)[C@H](Cc1ccccc1)NC(=O)[C@H](CC(N)=O)NC(=O)[C@H](CC(N)=O)NC(=O)[C@H](CO)NC(=O)[C@H](CO)NC(=O)[C@H](Cc1c[nH]cn1)NC(=O)[C@H](CCCNC(=N)N)NC(=O)[C@H](CC(C)C)NC(=O)[C@H](Cc1ccccc1)NC(=O)[C@H](CCC(=O)O)NC(=O)[C@H](C)NC(=O)[C@H](CC(C)C)NC(=O)[C@H](CCCNC(=N)N)NC(=O)[C@H](CCC(N)=O)NC(=O)[C@@H](NC(=O)[C@H](C)NC(=O)[C@@H]1CSSC[C@H](NC(=O)[C@H](Cc2c[nH]cn2)NC(=O)[C@H](Cc2c[nH]cn2)NC(=O)[C@H](Cc2c[nH]cn2)NC(=O)CC[C@H](NC(=O)CCCCCCCCCCCCCCCCCCC(=O)O)C(=O)O)C(=O)N[C@@H](CC(N)=O)C(=O)N[C@@H]([C@@H](C)O)C(=O)N[C@@H](C)C(=O)N[C@@H]([C@@H](C)O)C(=O)N1)[C@@H](C)O)C(=O)N[C@@H](CC(C)C)C(=O)N1CCC[C@H]1C(=O)N1CCC[C@H]1C(=O)N[C@H](C(=O)N[C@@H](CC(N)=O)C(=O)N[C@H](C(=O)NCC(=O)N[C@@H](CO)C(=O)N[C@@H](CC(N)=O)C(=O)N[C@H](C(=O)N[C@@H](Cc1ccc(O)cc1)C(N)=O)[C@@H](C)O)C(C)C)[C@@H](C)O` [Example 12, N-alpha-[(S)-4-Carboxy-4-(19-carboxynonadecanoylamino)butyryl]-His-His-[His1,Glu14,Arg17]-pramlintide] ({C20 diacid-γGlu}-HHHCNTATCATQRLAEFLRHSSNNFGPILPPTNVGSNTY-NH2; disulfide 4-9 (inferred)), the “Food intake reduction 0-24 h 30 nmol/kg (%)” value in the series with ad libitum fed rat (30 nmol/kg, 0-24 h) was found to be 70%. Also, in the series on ad libitum fed rat (30 nmol/kg, 24-48 h), the “Food intake reduction 24-48 h 30 nmol/kg (%)” value stood at 45%. For the same compound, the “ThT pH 4.0 lag time” value in series [1] is more than 45 h.

For the compound `CC[C@H](C)[C@H](NC(=O)[C@@H]1CCCN1C(=O)CNC(=O)[C@H](Cc1ccccc1)NC(=O)[C@H](CC(N)=O)NC(=O)[C@H](CC(N)=O)NC(=O)[C@H](CO)NC(=O)[C@H](CO)NC(=O)[C@H](Cc1c[nH]cn1)NC(=O)[C@H](Cc1c[nH]cn1)NC(=O)[C@H](CC(C)C)NC(=O)[C@H](Cc1ccccc1)NC(=O)[C@H](CCC(=O)O)NC(=O)[C@H](C)NC(=O)[C@H](CC(C)C)NC(=O)[C@H](CCCNC(=N)N)NC(=O)[C@H](CCC(N)=O)NC(=O)[C@@H](NC(=O)[C@H](C)NC(=O)[C@@H]1CSSC[C@H](NC(=O)[C@H](CCCNC(=N)N)NC(=O)CC[C@H](NC(=O)CCCCCCCCCCCCCCCCCCC(=O)O)C(=O)O)C(=O)N[C@@H](CC(N)=O)C(=O)N[C@@H]([C@@H](C)O)C(=O)N[C@@H](C)C(=O)N[C@@H]([C@@H](C)O)C(=O)N1)[C@@H](C)O)C(=O)N[C@@H](CC(C)C)C(=O)N1CCC[C@H]1C(=O)N1CCC[C@H]1C(=O)N[C@H](C(=O)N[C@@H](CC(N)=O)C(=O)N[C@H](C(=O)NCC(=O)N[C@@H](CO)C(=O)N[C@@H](CC(N)=O)C(=O)N[C@H](C(=O)N1CCC[C@H]1C(N)=O)[C@@H](C)O)C(C)C)[C@@H](C)O` [Example 96, N-alpha-[(S)-4-Carboxy-4-(19-carboxynonadecanoylamino)butyryl]-[Arg1,Glu14,His17,Pro37]-pramlintide] ({C20 diacid-γGlu}-RCNTATCATQRLAEFLHHSSNNFGPILPPTNVGSNTP-NH2; disulfide 2-7), the “Food intake reduction 0-24 h 3 nmol/kg (%)” value in the series with ad libitum fed rat (0-24 h) stood at 69%. Also, the “Food intake reduction 24-48 h 3 nmol/kg (%)” value with ad libitum fed rat (24-48 h) came to 89%. Besides, in series [1], the “ThT pH 4.0 lag time (physical stability in fibrillogenesis assay)” value is recorded as more than 45 h and the “ThT pH 4.0 lag time” value is more than 45 h.

As for `CC[C@H](C)[C@H](NC(=O)[C@@H]1CCCN1C(=O)CNC(=O)[C@H](Cc1ccccc1)NC(=O)[C@H](CC(N)=O)NC(=O)[C@H](CC(N)=O)NC(=O)[C@H](CO)NC(=O)[C@H](CO)NC(=O)[C@H](Cc1c[nH]cn1)NC(=O)[C@H](CCCNC(=N)N)NC(=O)[C@H](CC(C)C)NC(=O)[C@H](Cc1ccccc1)NC(=O)[C@H](CCC(=O)O)NC(=O)[C@H](C)NC(=O)[C@H](CC(C)C)NC(=O)[C@H](CCCNC(=N)N)NC(=O)[C@H](CCC(N)=O)NC(=O)[C@@H](NC(=O)[C@H](C)NC(=O)[C@@H]1CSSC[C@H](NC(=O)[C@H](CCCCN)NC(=O)CC[C@H](NC(=O)CCCCCCCCCCCCCCCCCCC(=O)O)C(=O)O)C(=O)N[C@@H](CC(N)=O)C(=O)N[C@@H]([C@@H](C)O)C(=O)N[C@@H](C)C(=O)N[C@@H]([C@@H](C)O)C(=O)N1)[C@@H](C)O)C(=O)N[C@@H](CC(C)C)C(=O)N1CCC[C@H]1C(=O)N1CCC[C@H]1C(=O)N[C@H](C(=O)N[C@@H](CC(N)=O)C(=O)N[C@H](C(=O)NCC(=O)N[C@@H](CO)C(=O)N[C@@H](CC(N)=O)C(=O)N[C@H](C(=O)N1CCC[C@H]1C(N)=O)[C@@H](C)O)C(C)C)[C@@H](C)O` [Example 53, N-alpha-[(S)-4-Carboxy-4-(19-carboxynonadecanoylamino)butyryl]-[Glu14,Arg17,Pro37]-pramlintide], the “Food intake reduction 0-24 h 3 nmol/kg (%)” value with ad libitum fed rat (0-24 h) amounted to 40%. The “Food intake reduction 24-48 h 3 nmol/kg (%)” value with ad libitum fed rat (24-48 h) is recorded as 28%. In addition, in series [1], the “ThT pH 4.0 lag time (physical stability in fibrillogenesis assay)” value is more than 45 h and the “ThT pH 4.0 lag time” value is more than 45 h.

Take `CC[C@H](C)[C@H](NC(=O)[C@@H]1CCCN1C(=O)CNC(=O)[C@H](Cc1ccccc1)NC(=O)[C@H](CC(N)=O)NC(=O)[C@H](CC(N)=O)NC(=O)[C@H](CO)NC(=O)[C@H](CO)NC(=O)[C@H](Cc1c[nH]cn1)NC(=O)[C@H](Cc1c[nH]cn1)NC(=O)[C@H](CC(C)C)NC(=O)[C@H](Cc1ccccc1)NC(=O)[C@H](CCC(=O)O)NC(=O)[C@H](C)NC(=O)[C@H](CC(C)C)NC(=O)[C@H](CCCNC(=N)N)NC(=O)[C@H](CCC(N)=O)NC(=O)[C@@H](NC(=O)[C@H](C)NC(=O)[C@@H]1CSSC[C@H](NC(=O)[C@H](CCCCN)NC(=O)CC[C@H](NC(=O)CCCCCCCCCCCCCCCCC(=O)O)C(=O)O)C(=O)N[C@@H](CC(N)=O)C(=O)N[C@@H]([C@@H](C)O)C(=O)N[C@@H](C)C(=O)N[C@@H]([C@@H](C)O)C(=O)N1)[C@@H](C)O)C(=O)N[C@@H](CC(C)C)C(=O)N1CCC[C@H]1C(=O)N1CCC[C@H]1C(=O)N[C@H](C(=O)N[C@@H](CC(N)=O)C(=O)N[C@H](C(=O)NCC(=O)N[C@@H](CO)C(=O)N[C@@H](Cc1c[nH]cn1)C(=O)N[C@H](C(=O)N[C@@H](Cc1ccc(O)cc1)C(N)=O)[C@@H](C)O)C(C)C)[C@@H](C)O` [Example 59, N-alpha-[(S)-4-Carboxy-4-(17-carboxyheptadecanoylamino)butyryl]-[Glu14,His17,His35]-pramlintide] ({C18 diacid-γGlu}-KCNTATCATQRLAEFLHHSSNNFGPILPPTNVGSHTY-NH2; disulfide 2-7): the “Food intake reduction 0-24 h 3 nmol/kg (%)” value in the series with ad libitum fed rat (0-24 h) is on record as 59%. For the same compound, the “Food intake reduction 24-48 h 3 nmol/kg (%)” value with ad libitum fed rat (24-48 h) came out at 27%. Besides, in series [1], the “ThT pH 4.0 lag time (physical stability in fibrillogenesis assay)” value is listed as more than 45 h and the “ThT pH 4.0 lag time” value was more than 45 h.
